Among the data in PMC4750701, “Role of Mitochondrial RNA Polymerase in the Toxicity of Nucleotide Inhibitors of Hepatitis C Virus” (Antimicrobial Agents and Chemotherapy, 2016) are CC50 and IC50 values, retold here.

The test system of data set [1] is mitochondrial spare respiratory capacity. The experiment in a line: Oxygen consumption rate / spare respiratory capacity in PC-3 cells. The settings on record: human, pH 7.4.
A short description of data set [2]: Cytotoxicity in MRC5 fibroblasts, 5-day treatment. To be noted: human, MRC5 fibroblasts.
Experimental: (§1) All cells were cultured at 37°C in a 5% CO2 incubator with 90% humidity unless noted otherwise. […] All cells were treated with the various compounds for 5 days, except for human erythroid and myeloid progenitors, which were treated for 14 days. After the incubation period, cell viability was measured by the addition of CellTiter Glo viability reagents (Promega, Madison, WI). The luminescence signal was quantified on an Envision luminescence plate reader (PerkinElmer, Waltham, MA) after incubation of the reagents and cells for 10 min at room temperature. […] CC50 values were calculated as the average of the results of three or four independent experiments.
Cell Culture and Cytotoxicity Studies
(§2) The Huh-7 cells were maintained in growth medium containing Dulbecco's Modified Eagle
(§3) Medium (DMEM, Cellgro) supplemented with 1% Nonessential Amino Acids (NEAA, Cellgro,
(§4) Manassas, VA), 10% fetal bovine serum (FBS, HyClone, Logan, UT) and 1% Penicillin-
(§5) streptomycin-glutamate (PSG, Invitrogen, Carlsbad, CA). The cells were passaged twice weekly
(§6) and maintained at 90% confluence densities.
(§7) The HepG2 cells were maintained in Eagle’s Minimum Essential Medium (EMEM) from ATCC
(§8) (Manassas, VA) supplemented with 10% FBS, 100 units/mL penicillin and 100 µg/mL
(§9) streptomycin (P/S) (Gibco). The cells were passaged twice weekly and maintained at 90%
(§10) The PC-3 cells were maintained in Kaighn’s F12 medium (Gibco, Carlsbad, CA) supplemented
(§11) with 10% FBS (HyClone, Logan, UT), 100 units/mL penicillin and 100 µg/mL streptomycin
(§12) (P/S) (Gibco). The cells were passaged twice weekly and maintained at 90% confluence. Cells
(§13) between passages 4 and 15 were used in the assays.
(§14) The fibroblast cell line MRC-5 cell line derived from normal lung tissue, was purchased from
(§15) ATCC (Manassas, VA) and cultured in Minimum Essential Medium (MEM) (Cellgro, Manassas,
(§16) VA) supplemented with 10% FBS (HyClone, Logan, UT) and 1% PSG (Invitrogen). The cells
(§17) were passaged twice weekly and maintained at 90% confluence densities.
The target of data set [3] is T1, Recombinant human DNA polymerase gamma (Homo sapiens, UniProt P54098).
T1 construct: made in house; host or cells: insect cells
T1 sequence (P54098 1-1239): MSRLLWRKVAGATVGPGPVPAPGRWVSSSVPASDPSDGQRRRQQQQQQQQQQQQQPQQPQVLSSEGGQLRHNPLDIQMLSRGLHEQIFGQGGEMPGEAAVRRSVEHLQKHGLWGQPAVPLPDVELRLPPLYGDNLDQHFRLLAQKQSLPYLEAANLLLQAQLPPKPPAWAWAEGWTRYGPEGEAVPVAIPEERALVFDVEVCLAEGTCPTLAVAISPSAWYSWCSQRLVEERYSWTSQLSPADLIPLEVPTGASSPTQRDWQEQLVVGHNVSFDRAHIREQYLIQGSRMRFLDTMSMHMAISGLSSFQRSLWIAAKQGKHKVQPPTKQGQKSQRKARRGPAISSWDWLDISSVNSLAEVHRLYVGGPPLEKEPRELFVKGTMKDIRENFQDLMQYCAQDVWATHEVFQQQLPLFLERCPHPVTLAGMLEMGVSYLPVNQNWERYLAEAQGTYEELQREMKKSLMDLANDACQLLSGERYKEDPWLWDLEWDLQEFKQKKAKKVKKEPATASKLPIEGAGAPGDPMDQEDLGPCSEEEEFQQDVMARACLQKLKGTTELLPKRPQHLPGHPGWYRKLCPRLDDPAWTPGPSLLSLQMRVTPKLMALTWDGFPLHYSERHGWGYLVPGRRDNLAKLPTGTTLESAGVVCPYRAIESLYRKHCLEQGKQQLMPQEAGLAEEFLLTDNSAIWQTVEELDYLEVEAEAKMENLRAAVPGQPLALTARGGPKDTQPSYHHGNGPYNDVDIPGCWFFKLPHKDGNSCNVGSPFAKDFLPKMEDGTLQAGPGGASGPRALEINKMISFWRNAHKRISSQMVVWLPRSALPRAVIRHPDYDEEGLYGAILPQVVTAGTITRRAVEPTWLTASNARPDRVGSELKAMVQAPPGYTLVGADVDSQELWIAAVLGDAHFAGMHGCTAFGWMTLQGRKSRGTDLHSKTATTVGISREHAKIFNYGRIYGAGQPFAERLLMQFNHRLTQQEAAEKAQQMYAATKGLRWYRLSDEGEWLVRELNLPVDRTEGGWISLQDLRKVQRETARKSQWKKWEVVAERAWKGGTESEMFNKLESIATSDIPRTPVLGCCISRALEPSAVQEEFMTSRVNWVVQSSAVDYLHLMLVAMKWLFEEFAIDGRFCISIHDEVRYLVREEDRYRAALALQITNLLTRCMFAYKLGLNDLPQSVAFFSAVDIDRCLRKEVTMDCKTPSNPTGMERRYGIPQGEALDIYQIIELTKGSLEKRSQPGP
T1 sequence (Q9UHN1 26-485 partner limits assumed): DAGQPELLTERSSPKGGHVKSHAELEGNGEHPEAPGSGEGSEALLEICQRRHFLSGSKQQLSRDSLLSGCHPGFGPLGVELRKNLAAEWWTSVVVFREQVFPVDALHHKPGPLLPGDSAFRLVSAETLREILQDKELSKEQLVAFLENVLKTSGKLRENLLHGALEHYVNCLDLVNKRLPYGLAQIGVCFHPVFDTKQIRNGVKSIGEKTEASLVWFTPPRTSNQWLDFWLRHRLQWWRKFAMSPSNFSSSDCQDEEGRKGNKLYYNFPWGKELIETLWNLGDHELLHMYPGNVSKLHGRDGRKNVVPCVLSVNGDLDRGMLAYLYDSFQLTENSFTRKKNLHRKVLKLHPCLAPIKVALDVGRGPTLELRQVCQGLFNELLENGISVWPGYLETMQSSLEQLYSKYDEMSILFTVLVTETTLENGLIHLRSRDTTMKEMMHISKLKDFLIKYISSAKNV
In words: Inhibition of human DNA polymerase gamma. In kind it is biochemical. To be noted: triphosphate form of the compound tested; read-out: Mean IC50 ± SD for DNA Pol γ. The text has this:
Activated fish sperm DNA was purchased from USB/Affymetrix (Santa Clara, CA) and used as a template for the DNA polymerases alpha, beta, and gamma. The DNA template used in the RNA Pol II assay was a 1,188-bp restriction fragment containing the cytomegalovirus (CMV) immediate early promoter (Promega, Madison, WI). The RNA and DNA oligonucleotides used in the mitochondrial RNA polymerase assay (see Table S1 in the supplemental material) were synthesized and PAGE purified by Thermo Scientific/Dharmacon (Lafayette, CO). RNA primer R12 was 5′-^32P-phosphorylated with [γ-^32P]ATP (3,000 Ci/mmol) and T4 kinase (New England BioLabs, Ipswich, MA).
Human DNA polymerase alpha, isolated from HeLa cell extracts, was from CHIMERx (Madison, WI). Recombinant human DNA polymerase beta, expressed in E. coli, was a gift from Zucai Suo at The Ohio State University. Recombinant human DNA polymerase gamma (including both the large subunit and the small subunit) was cloned, expressed, and purified from insect cells by Gilead Sciences (Foster City, CA) ([13]). RNA PolII was purchased as part of the HeLaScribe nuclear extract in vitro transcription system kit from Promega (Madison, WI). The recombinant human PolRMT and the transcription factors mitochondrial transcription factor A (mtTFA) and B2 (mtTFB2) were purchased from Enzymax (Lexington, KY). FLAG epitope-tagged RNA PolI and PolIII complexes were isolated from rat NSN1 cells and HeLa cells, respectively ([17], [18]). The inhibition of DNA polymerases alpha, beta, and gamma, PolRMT, and PolII and the rate of single-nucleotide incorporation by PolRMT have been described previously in detail ([12], [13], [19]). Inhibition of RNA PolI and PolIII was studied using published methods ([20], [21]). All concentrations were final unless noted otherwise. For the RNA PolI inhibition assay, a reaction mixture containing 50 mM HEPES (pH 7.9), 20% glycerol, 100 mM KCl, 1 mM dithiothreitol (DTT), 50 μg/ml calf thymus DNA, 4 mM MgCl2, 5 or 80 μM UTP (0.25 μl of [5,6-^3H]UTP, >25 Ci/mmol; PerkinElmer), 1 mM noncompeting NTP, competing NTP (5 μM for GTP, CTP, and UTP and 25 μM for ATP), and various concentrations (0 to 500 μM) of NTP analogs was preincubated at 30°C for 5 min. […] After incubation at 30°C for 20 min to 1 h, the reactions were terminated by pipetting the mixtures onto DEAE-cellulose discs (DE81; Whatman), and the products analyzed as described previously ([20], [21]).

Data set [4] in a line: Cytotoxicity in Huh7 cells, 5-day treatment (CellTiter Glo). To be noted: human, Huh-7 cells. In general terms: ATP-based viability assays read luminescence as a measure of living cells.
Experimental: as §1
Cell Culture and Cytotoxicity Studies
as §2, §3, §4, §5, §6, §7, §8, §9, §10, §11, §12, §13, §14, §15, §16, §17

SMILES strings stand for the structures.

For the molecule `COc1nc(N)nc2c1ncn2[C@@H]1O[C@H](COP(=O)(N[C@@H](C)C(=O)OCC(C)(C)C)Oc2cccc3ccccc23)[C@@H](O)[C@@]1(C)O` (stereo partly drawn) [BMS-986094], the CC50 (commonly the concentration that lowers cell viability or growth by half) at 3 days in data set [1] stood at 0.48 ± 0.07 µM.

Regarding `C[C@@]1(O)[C@H](O)[C@@H](CO)O[C@H]1n1ccc(N)nc1=O` [2′CMeC, 2′-C-methyl (2′CMe) cytidine], the figures for the CC50 at 5 days in data set [2] and in data set [4] were 69 ± 1 µM and greater than 89 µM, respectively. Also, the IC50 (as a rule, the concentration at which inhibition is half-maximal) in data set [3] was greater than 200 µM. Further, the CC50 at 3 days in data set [1] (PC-3 cells) was 100 µM.

With `C[C@@]1(O)[C@H](O)[C@@H](COP(=O)(O)OP(=O)(O)OP(=O)(O)O)O[C@H]1n1cnc2c(=O)[nH]c(N)nc21` [2′CMeGTP], the IC50 in data set [3] is greater than 200 µM.

Turning to `C[C@@]1(F)[C@H](O)[C@@H](CO)O[C@H]1n1ccc(N)nc1=O` [PSI-6130], the CC50 at 5 days in data set [2] and in data set [4] was greater than 89 µM throughout. Besides, the IC50 in data set [3] was greater than 200 µM.

As for `CCOc1nc(N)nc2c1ncn2[C@@H]1O[C@@H]2COP(=O)(OC(C)C)O[C@H]2[C@@]1(C)F` (stereo partly drawn) [PSI-938], the CC50 at 5 days in data set [2] and in data set [4] was greater than 89 µM throughout. Besides, the IC50 in data set [3] is greater than 200 µM.

`CC(C)OC(=O)[C@H](C)N[P@](=O)(OC[C@H]1O[C@@H](n2ccc(=O)[nH]c2=O)[C@](C)(F)[C@@H]1O)Oc1ccccc1` [Sofosbuvir]: in data set [3], the IC50 is greater than 200 µM.

For `[N-]=[N+]=N[C@]1(CO)O[C@@H](n2ccc(N)nc2=O)[C@H](O)[C@@H]1O` [4′-AzidoC, 4′-azido cytidine], the CC50 at 5 days in data set [2] and in data set [4] was greater than 89 µM throughout. Also, in data set [3], the IC50 is greater than 200 µM. Also, half-maximal cytotoxicity in data set [1] (PC-3 cells) (CC50 at 3 days) was put at 4.5 ± 0.3 µM.

In the case of `CC(C)OC(=O)[C@H](C)N[P@](=O)(OC[C@H]1O[C@@](C#N)(c2ccc3c(N)ncnn23)[C@](C)(O)[C@@H]1OC(=O)C(C)C)Oc1ccccc1` [GS-6620], the IC50 in data set [3] was greater than 200 µM.
